Laboratory results: ChEMBL document CHEMBL5620439, “Talaromides A-C, Bioactive Cyclic Heptapeptides from Talaromyces siglerae Isolated from a Marine Sponge” (2024)
Calls of active or inactive are those of the source. The rule behind the calls is not given here.

Legend:
PANC-1 [1] = experiment: Cytotoxicity against human PANC-1 cells assessed as reduction in cell viability at 10 to 100 uM incubated for 72 hrs by MTT assay; format: functional, cell-based; conditions: dose 10-100 µM
PANC-1 [2] = experiment: Antimetastatic activity in human PANC-1 cells assessed as decrease in migration at 80 uM incubated for 48 hrs by scratch wound healing assay relative to control; format: functional; design: scale not given: the % may be the effect or the level left
Bacillus subtilis = experiment: Antimicrobial activity against Bacillus subtilis 1021; format: functional, organism-based
[3] = tested on: Staphylococcus epidermidis; experiment: Antimicrobial activity against Staphylococcus epidermidis 1917; format: functional, organism-based
Salmonella typhimurium = experiment: Antimicrobial activity against Salmonella typhimurium 2515; format: functional, organism-based; conditions: Salmonella enterica subsp. enterica serovar Typhimurium
Escherichia coli = experiment: Antimicrobial activity against Escherichia coli 2441; format: functional, organism-based
Staphylococcus aureus [4] = experiment: Antimicrobial activity against methicillin sensitive Staphylococcus aureus CCARM 0204; format: functional, organism-based
Staphylococcus aureus [5] = experiment: Antimicrobial activity against methicillin sensitive Staphylococcus aureus CCARM 0205; format: functional, organism-based
Staphylococcus aureus [6] = experiment: Antimicrobial activity against methicillin sensitive Staphylococcus aureus CCARM 3090; format: functional, organism-based
Staphylococcus aureus [7] = experiment: Antimicrobial activity against methicillin sensitive Staphylococcus aureus CCARM 3635; format: functional, organism-based
RAW264.7 = experiment: Inhibition of nitric oxide production in LPS-activated mouse RAW264.7 cells; format: functional, cell-based

CC[C@@H](C)[C@H]1NC(=O)[C@H](C)NC(=O)[C@H]([C@@H](C)O)NC(=O)[C@@H](Cc2ccc(O)cc2)NC(=O)[C@@H](C(C)C)NC(=O)c2ccccc2NC(=O)[C@@H]2CCCN2C1=O
Activity (PANC-1 [1]): inactive
Activity (PANC-1 [2]): 52%
Activity (Bacillus subtilis): inactive
Activity [3]: inactive
Activity (Salmonella typhimurium): inactive
Activity (Escherichia coli): inactive
Activity (Staphylococcus aureus [4]): inactive
Activity (Staphylococcus aureus [5]): inactive
Activity (Staphylococcus aureus [6]): inactive
Activity (Staphylococcus aureus [7]): inactive
inhibition (RAW264.7): inactive

CC[C@@H](C)[C@H]1NC(=O)c2ccccc2NC(=O)[C@@H]2CCCN2C(=O)[C@@H]([C@H](C)CC)NC(=O)[C@H](C)NC(=O)[C@H]([C@@H](C)O)NC(=O)[C@@H](Cc2ccc(O)cc2)NC1=O
Activity (PANC-1 [1]): inactive
Activity (PANC-1 [2]): 48%
Activity (Bacillus subtilis): inactive
Activity [3]: inactive
Activity (Salmonella typhimurium): inactive
Activity (Escherichia coli): inactive
Activity (Staphylococcus aureus [4]): inactive
Activity (Staphylococcus aureus [5]): inactive
Activity (Staphylococcus aureus [6]): inactive
Activity (Staphylococcus aureus [7]): inactive
inhibition (RAW264.7): inactive

CC[C@@H](C)[C@H]1NC(=O)c2ccccc2NC(=O)[C@@H]2CCCN2C(=O)[C@@H](CC(C)C)NC(=O)[C@H](C)NC(=O)[C@H]([C@@H](C)O)NC(=O)[C@@H](Cc2ccc(O)cc2)NC1=O
Activity (PANC-1 [1]): inactive
Activity (Bacillus subtilis): inactive
Activity [3]: inactive
Activity (Salmonella typhimurium): inactive
Activity (Escherichia coli): inactive
Activity (Staphylococcus aureus [4]): inactive
Activity (Staphylococcus aureus [5]): inactive
Activity (Staphylococcus aureus [6]): inactive
Activity (Staphylococcus aureus [7]): inactive
inhibition (RAW264.7): inactive
